Assay results from US20180148648A1, “REACTIVE MESOGENS” (Merck Patent GmbH, priority 2015, published 2018).

Experiment: Yellowing study by UV-Vis percentage transmission after UV exposure
Assay type: physicochemical
Conditions: 1 wt. % in dichloromethane; percentage transmission across visible range; cured at 0, 100, 500, 1000 and 3000 mJ; FIG. 2
Description: UV-Vis spectroscopy was used to measure the compound yellowing by measuring the percentage transmission for each of the compounds across the visible range. This was done by dissolving 1 wt. % of each compound in a solvent, usually dichloromethane, and measuring the solutions percentage transmission on the Hitachi UV-Vis spectrometer, with air as a baseline. The solutions were then cured at a variety of different doses (0, 100, 500, 1000 and 3000 mJ) and the transmission measured again.
Anhydrous dichloromethane was used to dissolve the mixtures, as it remains unaffected when exposed to UV light. By comparing these percentage transmissions it could be concluded, which compound yellow and to what extent.

SMILES | change in yellowing when exposed to UV-light
C=CC(=O)OCCCCCCOc1ccc(C(=O)Oc2ccc(C#Cc3ccc(OC)cc3)cc2Cl)cc1 [A] | least amount of change in yellowing
C=CC(=O)OCCCCCCOc1ccc(C(=O)Oc2ccc(C#Cc3ccc(OC)cc3)cc2C)cc1 [B] | significant increase in yellowing
C=CC(=O)OCCCCCCOc1ccc(C(=O)Oc2ccc(C#Cc3ccc(OC)cc3)cc2F)cc1 [RM-1] | least amount of change in yellowing
